pIC50: −log10 of the molar value.
Columns and labels:
[1] = tested on: primary cultured rat hepatocytes; assay: In vitro cytotoxicity in primary cultured rat hepatocytes; type: cell-based; settings: 24 h treatment, cell morphology and LDH leakage, highest test concentration 300 μM; for LCC (lowest cytotoxic concentration): 300s = only slight cytotoxicity at 300 μM
Description: In Vitro Cytotoxicity in Primary Cultured Rat Hepatocytes
Adult male Wistar rats were narcotized with sodium pentobarbital and hepatocytes were isolated according to a standard procedure, i.e. by in situ perfusion of the liver with a collagenase solution. The viability of the purified hepatocytes, checked by the trypan blue dye exclusion method was greater than 85%. The isolated hepatocytes were resuspended in standard Williams Medium E, without phenol red, supplemented (WME supp.) with transferrin (100 μg/ml), triiodothyronine (10 μg/ml), gentamicin (50 μg/ml), hydrocortison hemisuccinate (13.36 μg/ml), glucagon (5 μg/ml), HEPES (10 mM), inosin (10 μg/ml), insulin (10 μg/ml), streptomycin (100 μg/ml) and penicillin (100 U/ml) and 10% fetal bovine serum (FBS). The cells were plated in collagen-coated 24-well plates at an initial density of 2×10^5 cells/well. After 4 h for attachment to the culture-plates, the medium was aspirated and replaced by fresh WME supp. without FBS containing the test compounds and incubated for 24 h at 37° C. in a […] and 5% CO2 atmosphere. For each experiment, i.e., with each batch of hepatocytes, treatments with the test compounds were done in quadriplicate. Quadriplicate controls (treatment with the vehicle only) were also present on each culture plate.
Stock solutions of the test compounds were prepared in DMSO a few hours before treatment start. Appropriate dilutions of these stock solutions were added to the culture media just prior to the treatment in order to give final concentrations of 0, 3, 10, 30, 100 and 300 μM. The final concentration of the vehicle DMSO was 1% (v/v).
The morphology of the hepatocyte monolayers was monitored by light microscopy after 24 hours of exposure to the test compounds. Treatment related effects are described according to the following grading: • 0 No morphological alterations observed upon treatment when compared to the control cultures • 1-3 Treatment resulting in any morphological changes, e.g. intracellular granulation, vacuolization or cell death. Depending on the severity, these changes were regarded as slight (1), moderate (2) or strong (3). • K Treatment resulting in 100% dead cells and/or the complete detachment of the monolayer yielding a clear cell-free dish.
After 24 h treatment of the hepatocyte cultures, aliquots of culture medium were carefully collected and used for the analysis of lactate dehydrogenase (LDH) activity by spectrophotometry using the LDH cytotoxicity detection kit from Clontech (cat No. 630117, Mountain View, Calif., USA). For each experiment, additional cultures were used for the determination of total intracellular LDH activity at treatment start. For this purpose, 4 wells of cell culture per experiment were washed with cold saline before treatment start, sonicated in fresh medium and the homogenate was analyzed for total LDH activity. Enzyme activities in the culture media were assessed and expressed as percentage of the total activity present in the cultured hepatocytes at the beginning of the treatments.
The lowest cytotoxic concentration (LCC) and the no effect concentration (NoEC) are given for each compound, based on cell morphology and LDH leakage after 24 h treatment. LCC is defined as the lowest concentration of the test compound leading to a clear effect on the cultured rat hepatocytes (morphology grading≧2 or ≧2-fold increase in LDH leakage). A LCC value of >300 μM indicates the absence of effect on both endpoints at the highest test concentration of 300 μM. […] NoEC is defined as the highest test concentration of the compound which was without an effect on the cultured rat hepatocytes (morphology and LDH leakage).

hCRTH2 receptor [2] = target: T1, hCRTH2 receptor (Homo sapiens, UniProt Q9Y5Y4); assay: Radioligand displacement assay in presence of human serum albumin (HSA); settings: displacement of 3H-PGD2, Binding-Buffer with 0.5% human serum albumin instead of 0.1% BSA
T1 construct: expressed in transfected cells; host or cells: HEK293 (recombinant HEK293-hCRTH2), membrane fragments
T1 sequence (Q9Y5Y4 1-395): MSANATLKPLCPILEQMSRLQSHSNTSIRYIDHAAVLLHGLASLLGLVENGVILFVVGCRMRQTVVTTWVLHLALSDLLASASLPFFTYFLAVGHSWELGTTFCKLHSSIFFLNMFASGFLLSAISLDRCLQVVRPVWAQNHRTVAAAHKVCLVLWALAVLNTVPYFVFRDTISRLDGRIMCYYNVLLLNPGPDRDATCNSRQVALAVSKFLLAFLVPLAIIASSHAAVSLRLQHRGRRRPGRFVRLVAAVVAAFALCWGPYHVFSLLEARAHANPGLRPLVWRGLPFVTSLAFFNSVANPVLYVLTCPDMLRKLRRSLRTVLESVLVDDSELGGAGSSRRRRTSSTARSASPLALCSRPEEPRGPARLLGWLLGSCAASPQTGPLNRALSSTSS
Experimental: (§1) First, recombinant HEK293-hCRTH2 cells were detached from culture plates into 5 ml buffer A/plate (Buffer A: 5 mM Tris, 1 mM MgCl2-6H2O pH=7.4) using a rubber policeman. Cells were then transferred into centrifugation tubes and centrifuged for 5 min at 400 g. The cell pellet was resuspended in the same buffer and tubes were frozen at 80° C. Cells were thawed and membrane fragments were generated by homogenization using a polytron homogenizer (30 seconds). The membrane fragments were then centrifuged at 3000 g for 20 minutes and resuspended in buffer C (Buffer C: 75 mM Tris, 25 mM MgCl2, 250 mM Saccharose pH 7.4). Aliquots of membrane fragments were stored at −20° C.
(§2) Binding assay was performed in a final assay volume of 250 μl. First, 25 μl of test compound, previously diluted in Binding-Buffer (Binding-Buffer: 50 mM Tris-Base, 100 mM NaCl, 1 mM EDTA, 0.1% BSA (protease free), 0.01% NaN3, 10 mM MnCl2 pH 7.0) was placed into each well. After addition of 75 μl Binding-Buffer, 50 μl of the radioligand ^3H-PGD2 (at 2.5 nM (220.000 dpm/well) from ANAWA ART0662) was added to each well. Binding assay was started by addition of 100 μl CRTH2 membrane fragments, reaching a final concentration of 20 μg/well. For non-specific binding, PGD2 was added to the reaction mixture to […] final concentration. This assay mix was incubated for 90 minutes at room temperature and then filtered through a GF/C filter 96-well plate which was pre-soaked for 3 hours in 0.5% polyethyleneimine (PEI). The filter-wells were washed three times with ice cold Binding-Buffer. Then, 40 μl of Microscint-40 (Packard) was added to each well and the retained radioactivity quantified in a Topcount (Packard).
Radioligand Displacement Assay-Human Serum Albumin (HSA):
Radioligand displacement assay in presence of human serum albumin (HSA) was performed as described above, with following modifications. Binding-Buffer-HSA: Binding-buffer+0.5% Sigma Albumin from Human serum A1887 (instead of 0.1% BSA). A volume of 25 μl test compound, previously diluted in Binding-Buffer-HSA was placed into each well. After addition of 75 μl Binding-Buffer-HSA, 50 μl of ^3H-PGD2 (at 2.5 nM (220.000 dpm/well) from ANAWA ART0662) was added to each well. Remaining protocol was identical as described above.

[3] = tested on: eosinophils (PGD2-induced shape change); assay: Eosinophil shape change assay with human plasma; type: cell-based; settings: human polymorphonuclear cells, 50% human plasma, activated with PGD2 100 nM, flow cytometry forward-scatter
Experimental: Eosinophil Shape Change Assay with Human Plasma
After obtaining informed consent, blood samples were drawn by venipuncture according to the protocol approved by the ethics committee of Basel, Switzerland. Polymorphonuclear leukocytes (containing eosinophils, basophils and neutrophils) were isolated using the Polymorphprep™ method (Axis-Shield). In brief, anticoagulated whole blood was layered onto a Polymorphprep gradient (density 1.113 g/ml) and centrifuged at 500 g for 30 min. The polymorphonuclear cell fraction was harvested and depleted for erythrocytes by hypotonic saline lysis.
The polymorphonuclear cells were resuspended in assay buffer (1×PBS with Ca^2+/Mg^2+ supplemented with 0.1% BSA, 10 mM HEPES, and 10 mM Glucose, pH 7.4) at 5×10^6 cells/ml and stained with anti-CD49d-APC ((APC=Allophycocyanin) for 1 hour at RT. Test compounds, at various concentrations, were preincubated 10 min in human plasma (anticoagulated with a thrombin inhibitor). Then, human plasma was added to the polymorphonuclear cells to 50% of final assay volume with polymorphonuclear cells at 4×10^6 cells/ml. After incubation for 10 minutes at 37° C., the polymorphonuclear cells were activated for 5 min at 37° C. by addition of PGD2 at 100 nM final concentration. Activation was stopped by addition of 0.5 ml paraformaldehyde (1%).
Immediately after fixation with paraformaldehyde, the samples were analyzed by FACSCanto flow cytometer (BD Biosciences) and target cells were identified by their forward-scatter (FSC) and side-scatter (SSC) characteristics. Eosinophils were identified by the anti-CD49d-APC signal and their characteristic side-scatter (SSC) profile. Shape change responses, indicative of eosinophil activation, were quantified as the percent of cells with an increased forward-scatter.

hCRTH2 receptor [4] = target: T1, hCRTH2 receptor; assay: hCRTH2 receptor membranes radioligand displacement assay; settings: displacement of 3H-PGD2 (2.5 nM), HEK293-hCRTH2 membrane fragments, Binding-Buffer with 0.1% BSA
Experimental: Preparation of hCRTH2 Receptor Membranes and Radioligand Displacement Assay:
as §1, §2

Row | Compound | NoEC (no effect concentration) [1] [µM] | LCC (lowest cytotoxic concentration) [1] | pIC50 (hCRTH2 receptor [2]) | pIC50 [3] | pIC50 (hCRTH2 receptor [4])
1 | CN(c1ncc(Cl)cn1)[C@H]1CCc2c(c3cc(F)ccc3n2CC(=O)O)C1 | 30 | 300 µM |  |  | 
2 | Cc1ccc2c(n1)c1c(n2CC(=O)O)CCC(N(C)c2ncc(Cl)cn2)C1 (stereo not drawn) [Example 1, 2-(8-((5-chloropyrimidin-2-yl)(methyl)amino)-2-methyl-6,7,8,9-tetrahydro-5H-pyrido[3,2-b]indol-5-yl)acetic acid] |  |  | 8.41 | 7.15 | 8.72
3 | CN(c1ncc(Cl)cn1)C1CCc2c(c3nc(F)ccc3n2CC(=O)O)C1 (stereo not drawn) [Example 2, 2-(8-((5-chloropyrimidin-2-yl)(methyl)amino)-2-fluoro-6,7,8,9-tetrahydro-5H-pyrido[3,2-b]indol-5-yl)acetic acid] |  |  | 8.64 | 8.38 | 8.51
4 | COc1ccc2c(n1)c1c(n2CC(=O)O)CCC(N(C)c2ncc(Cl)cn2)C1 (stereo not drawn) [Example 3, 2-(8-((5-chloropyrimidin-2-yl)(methyl)amino)-2-methoxy-6,7,8,9-tetrahydro-5H-pyrido[3,2-b]indol-5-yl)acetic acid] |  |  | 7.89 | 6.83 | 7.89
5 | CN(c1ncc(Cl)cn1)C1CCc2c(c3nc(C(F)(F)F)ccc3n2CC(=O)O)C1 (stereo not drawn) [Example 4, 2-(8-((5-chloropyrimidin-2-yl)(methyl)amino)-2-(trifluoromethyl)-6,7,8,9-tetrahydro-5H-pyrido[3,2-b]indol-5-yl)acetic acid] |  |  | 7.80 | 6.38 | 8.00
6 | O=C(O)Cn1c2c(c3ncccc31)CC(Nc1ncc(Cl)cn1)CC2 (stereo not drawn) [Example 5, 2-(8-((5-chloropyrimidin-2-yl)-amino)-6,7,8,9-tetrahydro-5H-pyrido[3,2-b]indol-5-yl)acetic acid] |  |  | 7.66 | 7.06 | 7.72
7 | CN(c1ncc(Cl)cn1)[C@H]1CCc2c(c3ncccc3n2CC(=O)O)C1 [Example 6, (S)-2-(8-((5-chloropyrimidin-2-yl)(methyl)amino)-6,7,8,9-tetrahydro-5H-pyrido[3,2-b]indol-5-yl)acetic acid] |  |  | 8.68 | 8.24 | 8.64
8 | CN(c1ncc(Cl)cn1)[C@H]1CCc2c(c3nc(F)ccc3n2CC(=O)O)C1 [Example 7, (S)-2-(8-((5-chloropyrimidin-2-yl)(methyl)amino)-2-fluoro-6,7,8,9-tetrahydro-5H-pyrido[3,2-b]indol-5-yl)acetic acid] |  |  | 8.30 | 8.51 | 8.25
9 | Cc1ccc2c(n1)c1c(n2CC(=O)O)CCC(N(C)c2ncc(Cl)cn2)C1 (stereo not drawn) [drawing 27] | >300 | >300 µM |  |  | 
10 | CN(c1ncc(Cl)cn1)C1CCc2c(c3nc(F)ccc3n2CC(=O)O)C1 (stereo not drawn) [drawing 28] | >300 | >300 µM |  |  | 
11 | COc1ccc2c(n1)c1c(n2CC(=O)O)CCC(N(C)c2ncc(Cl)cn2)C1 (stereo not drawn) [drawing 29] | 100 | 300 s |  |  | 
12 | CN(c1ncc(Cl)cn1)C1CCc2c(c3nc(C(F)(F)F)ccc3n2CC(=O)O)C1 (stereo not drawn) [drawing 30] | 100 | 300 s |  |  | 
13 | CN(c1ncc(Cl)cn1)[C@H]1CCc2c(c3ncccc3n2CC(=O)O)C1 [drawing 31] | >300 | >300 µM |  |  | 
14 | CN(c1ncc(Cl)cn1)[C@H]1CCc2c(c3ncccc3n2CC(=O)O)C1 [drawing 32] | 30 | 300 µM |  |  | 
15 | CN(c1ncc(Cl)cn1)[C@H]1CCc2c(c3nc(F)ccc3n2CC(=O)O)C1 [drawing 33] | >300 | >300 µM |  |  | 
16 | O=C(O)Cn1c2c(c3nc(F)ccc31)C[C@@H](Nc1ncc(Cl)cn1)CC2 [drawing 35] | >300 | >300 µM |  |  | 

Source: patent US9879006B2, “Azaindole acetic acid derivatives and their use as prostaglandin D2 receptor modulators” (IDORSIA PHARMACEUTICALS LTD, priority 2014, dated 2018)
